Reference: patent US20250170073A1, “SYNERGISTIC COMPOSITIONS FOR IMPROVING MINERAL BIOACCESSIBILITY” (priority 2022, published 2025)

Assay: Simulated digestion model, mineral bioaccessibility
Format: in vitro ADME
Conditions: in the presence of lutein
Procedure: In vitro simulated gastrointestinal digestion was used for assessing mineral bioaccessibility in presence of the tested compounds.
Mineral bioaccessibility buffer (MBB) was prepared (NaCl; 6.6 mg/mL, MgSO4; 0.12 mg/mL, Glucose; 0.9 mg/mL, L-Ascorbic acid; 0.09 mg/mL, HEPES; 8.6 mg/mL at pH 6.5) with Calcium, Iron and Zinc (tricalcium phosphate; 1314.6 μg/mL, Calcium D-pantothenate; 28.5 μg/mL, Calcium Carbonate; 13.0 μg/mL, Iron Sulphate heptahydrate; 3.8 μg/mL, Iron Chloride; 12.5 μg/mL, Zinc Sulphate heptahydrate; 17.4 μg/mL, Zinc Chloride; 2.2 μg/mL) to achieve a total mineral content (Calcium; 520 μg/mL, Iron; 5.0 μg/mL, Zinc; 5.0 μg/mL), as well as soluble mineral content similar to that of infant formula. […]
The transit of CCP, Lutein, 2-PA and non-digestible Gos/Fos through the gastro-intestinal tract was mimicked using a three-phase dialysis model that was adapted from literature [Venema, 2020]. […] Calcium, Iron and Zinc in the dialysate were analyzed with ICP-OES spectrometry.
The average (n=3) total amount of Calcium, Iron and Zinc measured in the dialysate was considered bioaccessible. […]

Q: With `CC1=C[C@H](O)CC(C)(C)[C@H]1/C=C/C(C)=C/C=C/C(C)=C/C=C/C=C(C)/C=C/C=C(C)/C=C/C1=C(C)C[C@@H](O)CC1(C)C` [lutein] as the compound, how does the mineral bioaccessibility read?
A: significantly increased
